These results are taken from US7125872B2, “β-sheet mimetics and use thereof as inhibitors of biologically active peptides or proteins” (Myriad Genetics, Inc., priority 1995, dated 2006).

The target of one series is T1, bovine trypsin (Bos taurus, UniProt P00760).
T1 construct: purchased Sigma
T1 sequence (P00760 24-246): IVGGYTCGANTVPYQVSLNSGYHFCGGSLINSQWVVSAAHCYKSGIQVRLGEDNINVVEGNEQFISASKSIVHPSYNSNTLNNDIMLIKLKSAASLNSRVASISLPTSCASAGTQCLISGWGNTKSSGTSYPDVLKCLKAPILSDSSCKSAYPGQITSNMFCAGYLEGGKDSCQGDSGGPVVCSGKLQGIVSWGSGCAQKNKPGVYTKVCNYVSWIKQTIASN
Description: trypsin inhibition assay, IC50 (Example 4). In kind it is biochemical. On the procedure:
All inhibition assays of this experiment were performed at room temperature in 96 well microplates using a Bio-Rad microplate reader (Model 3550). […] This solution (2.05 mM) served as the stock solution for all the inhibition assays. The hydrolysis of chromogenic substrates was monitored at 405 nm. The reaction progress curves were recorded by reading the plates typically 90 times with 30 seconds to 2 minute intervals. The initial rate were determined by unweighted nonlinear least-squares fitting to a first order reaction in GraFit. The determined initial velocities were then nonlinear least-square fitted against the concentrations of structure.
In the trypsin assay, pH 7.8 Tris (0.10 M Tris and 0.02 M CaCl2) was utilized as the buffer. BAPNA (from Sigma) was used at 1 mg/ml in 1% DMSO (v/v) deionized water solution as substrate. The same dilutions of structure (13b) were made as for Factor VII assay.

The nature of series [1]: pharmacodynamic and pharmacokinetic study in rats. The format is in vivo, male Sprague Dawley rats. On the procedure:
Specifically, a pharmacodynamic and pharmacokinetic study of structure (20b) was conducted in male Sprague Dawley rats. […] Groups of rats (n=3 or 4) were sacrificed and exsanguinated at 0.25, 0.5, 1, 2, 4 and 8 hours following dosing. Efficacy parameters, aPTT and TT, were measured for each plasma sample.

Another series has as its target factor VII (Homo sapiens, UniProt P08709). Description: Factor VII inhibition assay, Ki (Example 5). The format is biochemical. On the procedure: (§1) The reaction progress curves were recorded by reading the plates, typically 60 times with 30 second to 2 minute intervals. Initial rates were determined by unweighted nonlinear least-squares fitting to a first order reaction in GraFit (Erithacus Software Limited, London, England).
From this concentration point seven more sequential dilutions were made for the assay.

A further series deals with factor X (Bos taurus, UniProt P00743). Description: Factor X inhibition assay, Ki, bovine plasma enzyme. The format is biochemical. The following applies: bovine plasma (footnote e). On the procedure:
All inhibition assays were performed at room temperature in 96 well microplates using Bio-Rad microplate reader (Model 3550). […] The hydrolysis of chromogenic subsstrates was monitored at 405 nm. The reaction progress curves were recorded by reading the plates, typically 60 times with 30 second to 2 minute intervals. Initial rates were determined by unweighted nonlinear least-squares fitting to a first order reaction in GraFit (Erithacus Software Limited, London, England).
Factor X: Buffer and substrate were the same as used for thrombin assay. A 1:100 dilution was made in the pH8.0 tris buffer to serve as the first point. Seven more dilutions from the first were made for the assay.

In series [2] the target is T2, Thrombin thrombomodulin complex (Bos taurus, UniProt P00735).
T2 construct: thrombin was preincubated with 4 n thrombomodulin for 20 minutes at room temperature
Nature of the series: thrombin-thrombomodulin complex inhibition assay, Ki. The format is biochemical. The settings on record: read-out: Ki T.T.C. (Thrombin thrombomodulin complex).
Description: Seven sequential dilutions were made from the first point for the assay.
The assay for thrombin-thromomodulin complex was conducted as for thrombin except that prior to the addition of inhibitor and substrate, thrombin was preincubated with 4 n thrombomodulin for 20 minutes at room temperature.

The target in a further series is T3, tryptase.
T3 construct: rows headed: Ki tryptase; Ki Tryptase; tryptase; human lung; 2 (nM assay conc.)
Nature of the series: tryptase inhibition assay, Ki. In kind it is biochemical, human. On the procedure: as §1
Tryptase: 0.1 M tris, 0.2 M NaCl, 0.1 mg/ml heparin, pH=8.0 was utilized as buffer. […] From this point seven more dilutions were made for the assay.

factor X, sequence (P00743 234-492 limits assumed): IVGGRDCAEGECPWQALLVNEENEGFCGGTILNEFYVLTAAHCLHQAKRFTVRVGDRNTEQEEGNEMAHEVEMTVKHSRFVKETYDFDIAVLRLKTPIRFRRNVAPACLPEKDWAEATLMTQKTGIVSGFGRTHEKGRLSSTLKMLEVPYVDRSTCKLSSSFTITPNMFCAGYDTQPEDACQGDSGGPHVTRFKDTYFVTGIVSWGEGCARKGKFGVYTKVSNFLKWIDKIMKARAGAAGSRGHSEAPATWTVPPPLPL
factor X, sequence (P00743 41-180 limits assumed): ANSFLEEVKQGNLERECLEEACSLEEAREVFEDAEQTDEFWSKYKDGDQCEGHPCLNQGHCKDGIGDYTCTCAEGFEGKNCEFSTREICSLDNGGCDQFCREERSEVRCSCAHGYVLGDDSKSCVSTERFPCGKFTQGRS
factor VII, sequence (P08709 213-466 limits assumed): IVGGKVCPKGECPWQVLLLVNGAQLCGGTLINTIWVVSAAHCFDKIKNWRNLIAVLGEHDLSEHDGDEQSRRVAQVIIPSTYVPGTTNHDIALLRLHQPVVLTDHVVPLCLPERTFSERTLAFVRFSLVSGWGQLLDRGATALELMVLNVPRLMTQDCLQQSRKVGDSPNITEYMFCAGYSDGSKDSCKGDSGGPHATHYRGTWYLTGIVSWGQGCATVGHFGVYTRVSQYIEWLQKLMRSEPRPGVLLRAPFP
factor VII, sequence (P08709 61-212 limits assumed): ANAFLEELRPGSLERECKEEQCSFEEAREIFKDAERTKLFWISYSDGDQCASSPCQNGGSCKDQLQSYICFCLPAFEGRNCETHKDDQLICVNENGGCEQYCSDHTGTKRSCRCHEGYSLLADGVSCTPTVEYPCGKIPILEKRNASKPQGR
factor VII, sequence (P13726 33-295 partner): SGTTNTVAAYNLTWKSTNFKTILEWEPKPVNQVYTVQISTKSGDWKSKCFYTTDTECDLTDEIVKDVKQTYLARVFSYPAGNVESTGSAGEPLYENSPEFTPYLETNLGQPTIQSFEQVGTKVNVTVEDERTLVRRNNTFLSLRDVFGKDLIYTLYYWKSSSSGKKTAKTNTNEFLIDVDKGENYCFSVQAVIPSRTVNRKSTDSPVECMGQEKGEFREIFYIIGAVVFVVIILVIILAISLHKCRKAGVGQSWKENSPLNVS

In turn, `N=C(N)NCCC[C@H](NC(=O)[C@@H]1CCN2CC[C@@](N)(Cc3ccccc3)C(=O)N12)C(=O)CCl` [Structure (13b)] yielded an IC50 against bovine trypsin of 16 ± 8 nM. On to `N=C(N)NCCC[C@H](NC(=O)[C@@H]1CCN2CC[C@@](N)(Cc3ccccc3)C(=O)N12)C(=O)c1nc2ccccc2s1` [Structure (20b)], for which the “efficacy parameters aPTT and TT” value in series [1] (rat plasma, 4 mg/kg IV and 10 mg/kg PO, FIGS. 4A and 4B) is “in viva efficacy”. Also, in series [1] (rat, 10 mg/kg PO vs 4 mg/kg IV), the “bioavailability of orally administered compound” value is reported as “approximately 27%”. With `N=C(N)NCCC[C@H](NC(=O)[C@@H]1CC[C@@H]2CC[C@](N)(Cc3ccccc3)C(=O)N21)C(=O)c1nc2ccccc2s1` [Structure (29a)], the Ki was 1770 nM at factor VII and 4.65 µM at factor X. On to `N=C(N)NCCC[C@H](NC(=O)[C@@H]1CC[C@@H]2CC[C@@](N)(Cc3ccccc3)C(=O)N21)C(=O)c1nc2ccccc2s1` [Structure (29b)], for which the results for the Ki (in series [2]; on tryptase) were 0.088 nM and 9 nM, respectively.
